Experimental data taken from PubChem BioAssay (NCI).
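Following 48 hours of exposure in 96-well plates, responses at five concentrations were used to interpolate endpoints linearly. Definition used: TGI = concentration required for complete inhibition of growth.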

Legend:
Experiment in all cases: NCI-60 cell line screen, 48 h
[1] = system: SNB-75 CNS
[2] = system: HCC-2998 colon
[3] = system: CCRF-CEM leukemia
[4] = system: OVCAR-3 ovarian
[5] = system: SNB-19 CNS
[6] = system: CAKI-1 renal
[7] = system: MCF7 breast
[8] = system: M14 melanoma
[9] = system: MDA-MB-231 breast
[10] = system: SW-620 colon

Row | Compound | TGI [1] [µM] | TGI [2] [µM] | TGI [3] [µM] | TGI [4] [µM] | TGI [5] [µM] | TGI [6] [µM] | TGI [7] [µM] | TGI [8] [µM] | TGI [9] [µM] | TGI [10] [µM]
1 | O=C(O)c1ccccc1N=Nc1c(O)c(S(=O)(=O)O)cc2cc(S(=O)(=O)O)ccc12 | > 100 | > 100 | > 100 | > 100 | > 100 | > 100 | > 100 | > 100 | > 100 | > 100
2 | N#Cc1nc(C#N)n(S(=O)(=O)c2ccccc2)c1NS(=O)(=O)c1ccccc1 | > 100 | > 100 | > 100 | > 100 | > 100 | > 57.7 | > 100 | > 100 | > 100 | > 100
3 | CCOC(=O)C1CCCCN1C(=O)Cc1c[nH]c2ccccc12 (configuration not stated) | > 100 | > 100 | > 100 | > 100 | > 100 | > 100 | > 100 | > 100 | > 100 | > 100
4 | COc1ccc(CNc2cc(=O)n(C)c(=O)[nH]2)cc1 | > 100 | > 100 | > 100 | > 100 | > 100 | > 100 | > 100 | > 100 | > 100 | > 100
5 | CCCCCCCCCCCC[N+](CCCCCCCCCCCC)=C1SCCS1 | 30 | 22.4 |  | 19.8 |  | 26.1 |  | 22.3 |  | 10.1
6 | COc1cc(Oc2nc3ccc(C(F)(F)F)cc3nc2-c2ccccc2)cc(OC)c1OC | 23.5 | > 100 | > 100 | 97.1 |  | 17.3 | > 100 |  | > 100 | 
7 | C[N+](C)(C)c1ncnc2c1ncn2C1CCCO1 (configuration not stated) | > 100 | > 100 | > 100 | > 100 | > 100 |  | > 100 | > 100 |  | > 100
8 | CN=C(Nc1cccc(C(F)(F)F)c1)SCc1ccc(N=C=S)cc1 | 28 | 29 | > 100 |  | 28.1 | 30.4 |  |  | 32.3 | 41
9 | CCOC(=O)c1c[nH]c2ccc3c(c2c1=O)S(=O)(=O)CC3 (tested in a mixture with another compound) | > 100 | > 100 | > 100 | > 100 | > 100 | > 100 | > 100 |  |  | > 100
10 | CCOC(=O)Cn1nnc2ccc(Nc3nc4ccccc4nc3-c3ccccc3)cc21 | 99.1 | 66.4 | > 100 | > 100 | > 100 | > 100 | > 100 | > 100 |  | > 100
11 | OC(c1cccnc1Cl)c1nc2ccccc2c2ccnc(Cl)c12 (configuration not stated) | > 100 |  |  | > 100 | > 100 | > 100 | > 100 | > 100 | > 100 | > 100
12 | O=C1NC2CCCCCC2C12CCCCC2 (configuration not stated) | > 100 | > 100 | > 100 | > 100 | > 100 |  |  | > 100 |  | > 100
13 | CSc1c(C#N)c(N)n(-c2ccc(Cl)cc2)c(=O)c1C#N | > 100 | > 100 |  | > 100 | > 100 | > 100 | > 100 | > 100 | > 100 | > 100
14 | CCN(CC)c1nnc(CCCCCCCCc2nnc(N(CC)CC)o2)o1 | > 100 |  | > 100 | > 100 | > 100 | > 100 | > 100 | > 100 | > 100 | > 100
15 | Cc1cc2c(cc1C)[n+](=O)c(C(=O)c1ccccc1)c(C(F)(F)F)n2[O-] | 10.7 |  | 8.52 | 3.8 | 15.5 | 2.42 | 14.1 | 16.5 | 6.55 | 21.2
16 | C=CCOc1ccc(C2C(C(=O)OC)C(=O)CC(O)(c3ccccc3)C2C(=O)OC)cc1OC (configuration not stated) | 98.3 | > 100 | > 100 | > 100 | > 100 | > 100 | 61.3 |  | 38.2 | > 100
17 | CC(C)(CCC(C)(C)N1OC1c1ccccc1)N1OC1c1ccccc1 (configuration not stated) | > 100 | > 100 | 35 |  | > 100 | 60.3 | > 100 |  | > 100 | > 100
18 | COc1cc(Nc2nc3cc(C(F)(F)F)ccc3n3cccc23)cc(OC)c1OC | > 100 | > 100 | > 100 | > 100 | > 100 | > 100 | > 100 | > 100 |  | > 100
19 | CN1CCN(P2(=S)Oc3ccc4ccccc4c3-c3c(ccc4ccccc34)O2)CC1 | > 100 | 41.8 | > 100 | > 100 | > 100 | > 67.5 | > 81.2 |  |  | > 100
20 | O=c1[nH]nc(-c2ccccc2)n1O |  | > 100 | > 100 | > 100 | > 100 | > 100 | > 100 | > 100 | > 100 | > 100
21 | COc1cc(CNc2nc3ccccc3nc2C(=O)O)cc(OC)c1OC | > 100 | > 100 | > 100 | > 100 |  | > 100 | > 100 |  | > 100 | > 100
22 | Cn1c(=O)n2n(c1=O)C(C)(C13CC4CC(CC(C4)C1)C3)C13CC4CC(CC1C4)CC23 (configuration not stated) | > 100 |  | > 100 | > 100 | > 100 | > 100 | > 100 | > 100 | > 100 | > 100
23 | COC(=O)C(=O)Cc1nc2ccccc2o1 | > 100 | > 100 | > 100 | > 100 | > 100 |  |  | > 100 |  | 
24 | O=[N+]([O-])c1ccc(C(O)(C#CCN2CCCC2)c2ccccc2)cc1 (configuration not stated) | > 100 | 35.8 | 57.5 | > 100 | > 100 |  | > 100 | 33.6 | > 100 | > 100
